# Columns and labels:
# TAK1 = target: T1, TAK1 (Homo sapiens, UniProt O43318); experiment: Streptavidin agarose pull-down with biotin-tagged probe CB12; format: binding; details: lysates of HEK293T transfected with TAK1; RA-V in 10-fold excess
# T1 construct: expressed in transfected cells; host or cells: HEK293T
# T1 sequence (O43318 1-579 isoform O43318-2): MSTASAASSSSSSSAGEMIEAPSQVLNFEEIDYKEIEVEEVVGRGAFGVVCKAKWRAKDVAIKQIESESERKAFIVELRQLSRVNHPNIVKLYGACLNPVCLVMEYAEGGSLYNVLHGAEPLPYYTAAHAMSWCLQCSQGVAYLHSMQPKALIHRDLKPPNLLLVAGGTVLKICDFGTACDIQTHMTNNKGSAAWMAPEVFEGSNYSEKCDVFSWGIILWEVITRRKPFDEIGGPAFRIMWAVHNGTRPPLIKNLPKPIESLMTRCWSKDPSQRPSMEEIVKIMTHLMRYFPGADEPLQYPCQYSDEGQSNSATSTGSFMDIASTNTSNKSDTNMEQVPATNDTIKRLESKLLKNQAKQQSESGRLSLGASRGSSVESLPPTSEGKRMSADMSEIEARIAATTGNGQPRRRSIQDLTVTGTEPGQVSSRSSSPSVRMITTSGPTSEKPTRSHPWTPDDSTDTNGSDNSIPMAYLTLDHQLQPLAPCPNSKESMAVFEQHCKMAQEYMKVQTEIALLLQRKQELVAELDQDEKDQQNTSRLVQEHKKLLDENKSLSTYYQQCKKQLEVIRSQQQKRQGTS
# Experimental: HEK293T cells were transfected with TAK1 for 24 h, then the cell lysates were incubated with biotin or CB12 followed by streptavidin agarose pull-down. […] HEK293T cells were transfected with the indicated plasmids for 24 h. The cell lysates were pulled down with streptavidin agarose and then immunoblotted with HA or Flag antibody. Each experiment was repeated at least three times
# HEK293T cells were transfected with TAK1-N or TAK1-C for 24 h. The cells lysates were incubated with CB12 or biotin and precipitated with streptavidin-coated sepharose and were analyzed by immunoblotting with Flag antibody. b The model for RA-V binding to the crystal structure of the TAK1–TAB1 fusion protein (PDB 4GS6). […] HEK293T cells were transfected with TAK1 for 24 h, and then the cell lysates were incubated with biotin or CB12 before precipitation with streptavidin agarose. […] HeLa cells were incubated with various concentrations of RA-V for 12 h and then treated with 10 ng/mL TNF-α for 10 min. The cell lysates were prepared and western blotted with the indicated antibodies. Each experiment was repeated at least three times
# HEK293T cells were harvested and lysed in RIPA buffer with protease inhibitors. […] The samples were separated by SDS-PAGE, and the bound proteins were detected using the indicated antibodies.
# HepG2 xenograft tumors = experiment: HepG2 xenograft in nude mice; format: in vivo, female athymic nude BALB/c mice
# Experimental: Fig. 7 RA-V inhibits tumor growth and the expression of NF-κB target genes in a nude xenograft model. a–d Inhibition of the growth of HCT116 and HepG2 xenograft tumors by RA-V. Female athymic nude BALB/c mice bearing HCT116 (n = 8) or HepG2 (n = 7) xenograft tumors were intravenously injected with various concentrations of RA-V micelles or control micelles every other day. 5-FU (10 mg/kg) group as positive control. Effects of RA-V on the growth curves of subcutaneoue xenografts of HCT116 (a) and HepG2 (b) and effects on the tumor weight in the HCT116 (c) and HepG2 (d) models. e–f Tumors removed were photographed. g–h The expression of the NF-κB target genes, IL-8, MCP-1, and CXCL-1, in HCT116 (g) and HepG2 (h) tumor tissue from vehicle- and various concentrations of RA-V-treated group was determined by quantitative RT-PCR and normalized to GADPH expression. *, p < 0.05; **, p < 0.01; ***, p < 0.001
# In total, 2 × 10^6 HCT116 or 3 × 10^6 HepG2 cells were subcutaneously injected into the right dorsal flank of 6- to 8-week-old female athymic nude BALB/c mice. After tumor volumes reached 100 mm^3, the tumor-bearing mice were randomly divided into several groups. The mice bearing HCT116 (n = 8) or HepG2 xenograft tumors (n = 7) were received the intravenous injection of vehicle micelles or various concentrations of RA-V micelles every other day. 5-FU (10 mg/kg) group as positive control. Body weights and tumor volumes were recorded every other day. Tumor volumes were calculated using the following formula: tumor volume (mm^3) = 0.52 × length × width^2. At the end of the experiments, the mice were killed. Tumor xenografts of each mouse were removed and weighed. Part of each tumor tissue was stored at liquid nitrogen for quantitative RT-PCR analysis. […] Serum alanine transaminase(ALT), aspartate transaminase(AST), and creatine kinase(CK) were determined using relevant kits (Nanjing Jiancheng) according to the manufacturer’s specific instructions.
# [1] = system: p65 phosphorylation and IκBα phosphorylation; experiment: Western blot in HEK293T cells transfected with TRAF2, MyD88 or IKKβ; format: cell-based; details: RA-V 48 h
# Experimental: To determine where RA-V acts in this pathway, TRAF2, MyD88, IKKβ, or p65 plasmid was transiently transfected into HEK293T cells together with the 5 × κB-lucieferase and pTK-Renilla reporters. […] Western blots were performed to investigate the effect of RA-V on NF-κB-associated proteins in HEK293T cells transfected with the TRAF2, MyD88, or IKKβ plasmid. […] Moreover, we used a computational method to predict where RA-V is likely to act in this pathway.
# Fig. 3 RA-V represses NF-κB activation upstream of the IKK protein complex. a RA-V inhibited the TRAF2- and MyD88-induced expression of the NF-κB reporter in a dose-dependent manner. The indicated plasmids were transfected into HEK293T cells together with the 5 × κB-luciferase and pTK-Renilla reporters. Twenty-four hours after transfection, the cells were incubated with various concentrations of RA-V for 48 h before luciferase assays were performed. b RA-V inhibited TRAF2- and MyD88-induced p65 phosphorylation and IκBα phosphorylation in a dose-dependent manner. […]
# For western blot analysis, the samples were equally subjected to sodium dodecyl sulfate polyacrylamide gel electrophoresis (SDS-PAGE) and transferred to polyvinylidene difluoride membranes (Millipore). […] The protein bands were detected with the SuperSignal West Pico Chemiluminescent Substrate (Pierce).
# [2] = HepG2, n = 7, RA-V micelles i.v. every other day, vs control
substance,measurement,setting,value
RA-V,competition with the CB12–TAK1 interaction (pull-down),TAK1,competed away
same,tumor growth rate (tumor volume),HepG2 xenograft tumors; [2],significantly reduced
same,tumor weight,HepG2 xenograft tumors; [2],obviously lower
same,"expression of IL-8, MCP-1, and CXCL-1 in tumor tissue","HepG2 xenograft tumors; HepG2 xenograft, quantitative RT-PCR",remarkable decreased
same,p65 and IκBα phosphorylation in cells transfected with IKKβ plasmid,[1],no effect
same,p65 phosphorylation and IκBα phosphorylation in cells overexpressing TRAF2 or MyD88,[1],dose-dependently inhibited
